# US10752621B2, “Oxazolidinone compounds and methods of use thereof as antibacterial agents” (priority 2017, dated 2020)
# Like-named read-outs stand apart in the source and are kept apart here.
# Test system: Mycobacterium tuberculosis (Mtb-GFP; H37Rv pMSP12::GFP)
# Experiment: microbe, parasite or virus in culture
# Type: cell-based
# Conditions: 168 h
# [1] = pH 6.8, read-out: Mtb Cho MITC95
# [2] = pH 6.8, read-out: Mtb Glu MITC95
structure (smiles),measurement,setting,value
"Cn1nccc1-c1ccc(N2C[C@H](CNC=N)OC2=O)cc1F [Example 15, (S)-N-((3-(3-fluoro-4-(1-methyl-1H-pyrazol-5-yl)phenyl)-2-oxooxazolidin-5-yl)methyl)formimidamide]",MIC,[1],0.78 µM
same,MIC,[2],0.39 µM
"CC(=N)NC[C@H]1CN(c2ccc(-c3ccnn3C)c(F)c2)C(=O)O1 [Example 21, (S)-N-((3-(3-fluoro-4-(1-methyl-1H-pyrazol-5-yl)phenyl)-2-oxooxazolidin-5-yl)methyl)acetimidamide]",MIC,[1],25 µM
same,MIC,[2],25 µM
"CC(=N)NC[C@H]1CN(c2ccc(-c3ccc(-n4cnnn4)nc3)c(F)c2)C(=O)O1 [Example 23, (S)-N-((3-(4-(6-(1H-tetrazol-1-yl)pyridin-3-yl)-3-fluorophenyl)-2-oxooxazolidin-5-yl)methyl)acetimidamide]",MIC,[1],12.5 µM
same,MIC,[2],6.25 µM
"CS(=O)(=O)c1ccc(-c2ccc(N3C[C@H](CNC=N)OC3=O)cc2F)cc1 [Example 16, (S)-N-((3-(2-fluoro-4′-(methylsulfonyl)-[1,1′-biphenyl]-4-yl)-2-oxooxazolidin-5-yl)methyl)formimidamide]",MIC,[1],0.39 µM
same,MIC,[2],0.19 µM
"Cc1nnn(-c2ccc(-c3ccc(N4C[C@H](CN/C(N)=N/C#N)OC4=O)cc3F)cn2)n1 [Example 2, (S,E)-2-cyano-1-((3-(3-fluoro-4-(6-(5-methyl-2H-tetrazol-2-yl)pyridin-3-yl)phenyl)-2-oxooxazolidin-5-yl)methyl)guanidine]",MIC,[1],0.19 µM
same,MIC,[2],0.09 µM
"C/C(=N\C#N)NC[C@H]1CN(c2cnc(N3CCS(=O)(=O)CC3)c(F)c2)C(=O)O1 [Example 8, (S,E)-N′-cyano-N-((3-(6-(1,1-dioxidothiomorpholino)-5-fluoropyridin-3-yl)-2-oxooxazolidin-5-yl)methyl)acetimidamide]",MIC,[1],6.25 µM
same,MIC,[2],6.25 µM
"N=CNC[C@H]1CN(c2ccc(-c3ccc(-n4cnnn4)nc3)c(F)c2)C(=O)O1 [Example 17, (S)-N-((3-(4-(6-(1H-tetrazol-1-yl)pyridin-3-yl)-3-fluorophenyl)-2-oxooxazolidin-5-yl)methyl)formimidamide]",MIC,[1],0.24 µM
same,MIC,[2],0.12 µM
"N=CNC[C@H]1CN(c2cc(F)c(-c3cccc(S(N)(=O)=O)c3)c(F)c2)C(=O)O1 [Example 19, (S)-N-((3-(2,6-difluoro-3′-sulfamoyl-[1,1′-biphenyl]-4-yl)-2-oxooxazolidin-5-yl)methyl)formimidamide]",MIC,[1],0.68 µM
same,MIC,[2],0.39 µM
"C/C(=N\C#N)NC[C@H]1CN(c2ccc(-c3ccc(-n4nccn4)nc3)c(F)c2)C(=O)O1 [Example 10, (S,E)-N-((3-(4-(6-(2H-1,2,3-triazol-2-yl)pyridin-3-yl)-3-fluorophenyl)-2-oxooxazolidin-5-yl)methyl)-N′-cyanoacetimidamide]",MIC,[1],0.39 µM
same,MIC,[2],0.14 µM
"CC(=N)NC[C@H]1CN(c2cc(F)c(-c3cccc(S(N)(=O)=O)c3)c(F)c2)C(=O)O1 [Example 22, (S)-N-((3-(2,6-difluoro-3′-sulfamoyl-[1,1′-biphenyl]-4-yl)-2-oxooxazolidin-5-yl)methyl)acetimidamide]",MIC,[1],6.25 µM
same,MIC,[2],3.12 µM
"N=CNC[C@H]1CN(c2cc(F)c(N3CCOCC3)c(F)c2)C(=O)O1 [Example 20, (S)-N-((3-(3,5-difluoro-4-morpholinophenyl)-2-oxooxazolidin-5-yl)methyl)formimidamide]",MIC,[1],0.58 µM
same,MIC,[2],0.14 µM
"CS(=O)(=O)c1ccc(-c2ccc(N3C[C@H](CN/C(N)=N/C#N)OC3=O)cc2F)cc1 [Example 4, (S,E)-2-cyano-1-((3-(2-fluoro-4′-(methylsulfonyl)-[1,1′-biphenyl]-4-yl)-2-oxooxazolidin-5-yl)methyl)guanidine]",MIC,[1],0.39 µM
same,MIC,[2],0.39 µM
"C/C(=N\C#N)NC[C@H]1CN(c2ccc(N3CCOCC3)c(F)c2)C(=O)O1 [Example 9, (S,E)-N′-cyano-N-((3-(3-fluoro-4-morpholinophenyl)-2-oxooxazolidin-5-yl)methyl)acetimidamide]",MIC,[1],3.12 µM
same,MIC,[2],3.12 µM
"C/C(=N\C#N)NC[C@H]1CN(c2cc(F)c(N3CCS(=O)(=O)CC3)c(F)c2)C(=O)O1 [Example 11, (S,E)-N′-cyano-N-((3-(4-(1,1-dioxidothiomorpholino)-3,5-difluorophenyl)-2-oxooxazolidin-5-yl)methyl)acetimidamide]",MIC,[1],3.12 µM
same,MIC,[2],1.5 µM
"CC(=O)NC[C@H]1CN(c2ccc(N3CCOCC3)c(F)c2)C(=O)O1 [Linezolid, reference compound]",MIC,[1],3.14 µM
same,MIC,[2],4.58 µM
"C/C(=N\C#N)NC[C@H]1CN(c2ccc(-c3ccc(-n4nnc(C)n4)nc3)c(F)c2)C(=O)O1 [Example 12, (S,E)-N′-cyano-N-((3-(3-fluoro-4-(6-(5-methyl-2H-tetrazol-2-yl)pyridin-3-yl)phenyl)-2-oxooxazolidin-5-yl)methyl)acetimidamide]",MIC,[1],0.19 µM
same,MIC,[2],0.14 µM
"C/C(=N\C#N)NC[C@H]1CN(c2ccc(-c3ccnn3C)c(F)c2)C(=O)O1 [Example 6, (S,E)-N′-cyano-N-((3-(3-fluoro-4-(1-methyl-1H-pyrazol-5-yl)phenyl)-2-oxooxazolidin-5-yl)methyl)acetimidamide]",MIC,[1],0.78 µM
same,MIC,[2],0.78 µM
"Cn1nccc1-c1ccc(N2C[C@H](CN/C(N)=N/C#N)OC2=O)cc1F [Example 1, (S,E)-2-cyano-1-((3-(3-fluoro-4-(1-methyl-1H-pyrazol-5-yl)phenyl)-2-oxooxazolidin-5-yl)methyl)guanidine]",MIC,[1],0.78 µM
same,MIC,[2],0.78 µM
"N#C/N=C(\N)NC[C@H]1CN(c2ccc(-c3ccc(-n4nccn4)nc3)c(F)c2)C(=O)O1 [Example 3, (S,E)-1-((3-(4-(6-(2H-1,2,3-triazol-2-yl)pyridin-3-yl)-3-fluorophenyl)-2-oxooxazolidin-5-yl)methyl)-2-cyanoguanidine]",MIC,[1],0.19 µM
same,MIC,[2],0.19 µM
"CC(=N)NC[C@H]1CN(c2ccc(-c3cccc(S(N)(=O)=O)c3)c(F)c2)C(=O)O1 [Example 24, (S)-N-((3-(2-fluoro-3′-sulfamoyl-[1,1′-biphenyl]-4-yl)-2-oxooxazolidin-5-yl)methyl)acetimidamide]",MIC,[1],6.25 µM
same,MIC,[2],6.25 µM
"CS(=O)(=O)c1ccc(-c2ccc(N3C[C@H](CN/C(N)=N/C#N)OC3=O)cc2F)cn1 [Example 5, (S,E)-2-cyano-1-((3-(3-fluoro-4-(6-(methylsulfonyl)pyridin-3-yl)phenyl)-2-oxooxazolidin-5-yl)methyl)guanidine]",MIC,[1],0.39 µM
same,MIC,[2],0.78 µM
"C/C(=N\C#N)NC[C@H]1CN(c2ccc(-c3ccc(S(C)(=O)=O)nc3)c(F)c2)C(=O)O1 [Example 13, (S,E)-N′-cyano-N-((3-(3-fluoro-4-(6-(methylsulfonyl)pyridin-3-yl)phenyl)-2-oxooxazolidin-5-yl)methyl)acetimidamide]",MIC,[1],1.5 µM
same,MIC,[2],0.78 µM
"N=CNC[C@H]1CN(c2cc(F)c(-c3ccc(S(N)(=O)=O)cc3)c(F)c2)C(=O)O1 [Example 18, (S)-N-((3-(2,6-difluoro-4′-sulfamoyl-[1,1′-biphenyl]-4-yl)-2-oxooxazolidin-5-yl)methyl)formimidamide]",MIC,[1],0.39 µM
same,MIC,[2],0.29 µM
"C/C(=N\C#N)NC[C@H]1CN(c2ccc(-c3ccc(S(C)(=O)=O)cc3)c(F)c2)C(=O)O1 [Example 14, (S,E)-N′-cyano-N-((3-(2-fluoro-4′-(methylsulfonyl)-[1,1′-biphenyl]-4-yl)-2-oxooxazolidin-5-yl)methyl)acetimidamide]",MIC,[1],0.58 µM
same,MIC,[2],0.58 µM
"C/C(=N\C#N)NC[C@H]1CN(c2ccc(-c3cccc(S(N)(=O)=O)c3)c(F)c2)C(=O)O1 [Example 7, (S,E)-N′-cyano-N-((3-(2-fluoro-3′-sulfamoyl-[1,1′-biphenyl]-4-yl)-2-oxooxazolidin-5-yl)methyl)acetimidamide]",MIC,[1],1.14 µM
same,MIC,[2],1.5 µM
